From article PMC5707067, “Farnesyl phenolic enantiomers as natural MTH1 inhibitors from Ganoderma sinense” (Oncotarget, 2017)

Experiment: CCK8 cytotoxicity assay, Vero
Assay type: cell-based, African green monkey
Conditions: African green monkey, Vero kidney cells (normal tissue cell line), CCK8, 48 h
Source text: The growth inhibitory effects of the isolated farnesyl phenolic compounds (1–8) against carcinoma cell lines [human osteosarcoma cells (U2OS), human colorectal carcinoma cells (SW620), human ES-2 ovarian carcinoma cells (ES-2)] and normal tissue cell lines [human hepatic cells (Lo2), African green monkey kidney vero cells (Vero)] were further investigated using CCK8 assay method (Table 3).
Carcinoma cell lines [human osteosarcoma cells (U2OS), human colorectal carcinoma cells (SW620), human ES-2 ovarian carcinoma cells (ES-2)] and normal tissue cell lines [human hepatic cells (Lo2), African green monkey kidney Vero cells (Vero)] The U2OS, SW620, ES-2, Lo2 and Vero were obtained from ATCC (Manassas, VA, USA). The SW620 and Vero cells were cultured in Roswell Park Memorial Institute medium (RPMI), with 10% fetal bovine serum (Hyclone) and 1% penicillin-streptomycin (Sigma). Lo2, U2OS and ES-2 cells were grown in Dulbecco's modified eagle medium (DMEM), with 10% fetal bovine serum (Hyclone) and 1% penicillin-streptomycin (Sigma). All of these cells were cultured at 37°C in a humidified atmosphere with 5% CO2. For CCK8 assay cytotoxicity evaluation of compounds, all cells were separately plated at a density of 1 × 10^4 cells/well in a 96 well plate. Cells were cultivated at 37°C in 5% CO2 atmosphere for 24 h, then medium in the wells was replaced with fresh medium containing compounds which were diluted in 8 dilution steps covering the range from 200 μM to 1.5625 μM. And DMSO was used as negative control. After 48 h incubation, 10 μL of CCK8 solution was added to each well. After 30 min, the optical density (OD) of each well was measured at wavelength of 450 nm on spectrophotometer. Data were corrected for background (no-cell control) and expressed as a percentage of the value for untreated cells. The IC50 values of the isolated compounds were derived from the mean OD values of the triplicate tests versus the drug concentration curves.

Question: Which IC50 at 48 h does the source give for `CO[C@]1(c2cc(O)cc(O)c2)C=C(CCCC(CO)CC/C=C(\C)COC(=O)/C=C/c2ccc(O)cc2)C(=O)O1` (stereo partly drawn) [Compound 1, (5R)-3-{9-[(E)-coumaroyl]-4-hydroxymethyl-8-methyl-7-nonene}-5-(3,5-dihydroxyphenyl)-5-methoxy-2(5H)-furanone] here?
Answer: > 300 µM
